# In patent US10537567B2, “Kinase inhibitors for treatment of disease” (BioAxone BioSciences, Inc., priority 2017, dated 2020):
# “Also recorded” adds a separate entry of the source.
# Assays:
# PKA = PKA (Homo sapiens, UniProt P17612); test: Single dose inhibition assay of key AGC class kinases; type: biochemical; details: 10 μM API
# Method: Molecular modeling and rational drug design were used to create and screen over 50 ROCK inhibitors. These ROCK inhibitors were screened for selectivity for ROCK2 and ability to promote neurite outgrowth. Several lead inhibitors came out of this screen and further screened for inhibition of key AGC class kinases by a single dose inhibition assay performed with 10 μM active pharmaceutical ingredient (API). The lead compound is chiral. […] They have different selectivity for ROCK2 (Table 2) and different off-target profiles (Table 1; FIG. 1).
# ROCK2 [1] = biological target: T1, ROCK2 (Homo sapiens, UniProt O75116); test: DiscoverX kinome screen; type: binding; parameters: are incubated with DNA-tagged kinase domains tagged; DNA tag; purchased DiscoverX; details: 10,000 nM API
# Method: (§1) A 468-target kinome screen and a safety screen were carried out to examine the off-target profiles of different kinase inhibitors (DiscoverX, Freemont, Calif.). The kinome screen is a binding assay where API interference of kinase domain/substrate binding is assessed as percent of control. Less than 10% binding (or >90% binding inhibition) is most biologically relevant and considered as a ‘hit’. BA-2017 only had 7 off-target hits compared to BA-1049 and Netarsudil, which both had 11 hits (Table 1) (Studirvant et al. 2016 Bioorg Med Chem Lett. 26(10):2475-2480). […] Published data for Netarsudil were with 200 times less API. […] The NET activity likely helps to decrease IOP but might increase hyperemia, while the SERT activity might have long-term safety consequences (Costagliola et al. 2004 CNS drugs 18(8): p. 475-484).
# (§2) In the kinome screen BA-2017 had fewer off-target hits (Table 1) than BA-1049. […] An interesting hit from the kinome screen was on Abl (Table 1), an oncogene that also regulates many cellular activities, including vascular leakage.
# Target sequence in this assay (O75116 92-354 limits assumed): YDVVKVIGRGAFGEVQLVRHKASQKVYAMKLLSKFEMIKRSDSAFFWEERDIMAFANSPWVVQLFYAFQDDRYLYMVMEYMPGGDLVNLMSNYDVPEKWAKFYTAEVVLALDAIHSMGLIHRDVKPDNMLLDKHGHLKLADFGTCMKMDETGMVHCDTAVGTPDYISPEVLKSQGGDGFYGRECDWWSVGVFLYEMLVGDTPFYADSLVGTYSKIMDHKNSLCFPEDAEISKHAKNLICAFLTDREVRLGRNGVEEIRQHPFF
# ROCK1 [2] = biological target: T2, ROCK1 (Homo sapiens, UniProt Q13464); test: DiscoverX kinome screen; type: binding; parameters: are incubated with DNA-tagged kinase domains tagged; DNA tag; purchased DiscoverX; details: 10,000 nM API
# Method: as §1, §2
# Target sequence in this assay (Q13464 76-338 limits assumed): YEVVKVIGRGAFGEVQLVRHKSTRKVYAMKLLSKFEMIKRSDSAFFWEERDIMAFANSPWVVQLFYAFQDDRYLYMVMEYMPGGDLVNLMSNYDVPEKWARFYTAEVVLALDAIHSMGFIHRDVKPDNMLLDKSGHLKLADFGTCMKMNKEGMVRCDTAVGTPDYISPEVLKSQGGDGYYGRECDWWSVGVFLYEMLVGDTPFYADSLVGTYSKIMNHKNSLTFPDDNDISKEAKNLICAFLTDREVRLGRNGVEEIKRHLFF
# [3] = test system: rat midbrain dopaminergic neurons; test: MPP+ toxicity in cultured midbrain dopaminergic neurons; type: cell-based; details: 0.25-50 μM, 20 μM MPP+, 48 hours
# Method: These in vitro experiments are conducted using primary cultures of embryonic rat midbrain dopaminergic neurons. MPP+ is known to cause the death of cultured midbrain dopaminergic neurons. Rho kinase and Abl kinase inhibitors are tested individually at varying concentrations for their ability to prevent MPP+-induced cell death.
# Primary cultures of rat midbrain dopaminergic neurons are established from cells acutely isolated from the ventral midbrain of embryonic day 14 rats (Charles River; Wilmington, Mass.). The cells are plated in serum-free conditions (Neurobasal plus B-27 Supplements; Thermo-Fisher; Waltham, Mass.) onto glass coverslips coated with poly-ornithine and laminin as attachment factors. Cells are cultured overnight on the coated coverslips in a 37° C./5% CO2 tissue culture incubator prior to the initiation of the varying treatments.
# On day 3 after plating, MPP+(Sigma Chemical; St. Louis, Mo.) is added to the medium at 20 μM final concentration. The cultures are allowed to continue for an additional 48 hours. At the end of the culture period, the cells are washed, and then fixed with 4% paraformaldehyde solution prior to permeabilization and blocking with 10% normal goat serum in PBS. […] Specimens are examined using fluorescence microscopy and the numbers of TH-positive neurons with non-pyknotic nuclei are counted in 6 to 8 high power fields per specimen.
# [4] = biological target: T3, norepinephrine transporter (NET) (Homo sapiens, UniProt P23975); test: Safety screen; type: biochemical; details: 10,000 nM API
# T3 construct: purchased DiscoverX
# T3 sequence (P23975 whole entry): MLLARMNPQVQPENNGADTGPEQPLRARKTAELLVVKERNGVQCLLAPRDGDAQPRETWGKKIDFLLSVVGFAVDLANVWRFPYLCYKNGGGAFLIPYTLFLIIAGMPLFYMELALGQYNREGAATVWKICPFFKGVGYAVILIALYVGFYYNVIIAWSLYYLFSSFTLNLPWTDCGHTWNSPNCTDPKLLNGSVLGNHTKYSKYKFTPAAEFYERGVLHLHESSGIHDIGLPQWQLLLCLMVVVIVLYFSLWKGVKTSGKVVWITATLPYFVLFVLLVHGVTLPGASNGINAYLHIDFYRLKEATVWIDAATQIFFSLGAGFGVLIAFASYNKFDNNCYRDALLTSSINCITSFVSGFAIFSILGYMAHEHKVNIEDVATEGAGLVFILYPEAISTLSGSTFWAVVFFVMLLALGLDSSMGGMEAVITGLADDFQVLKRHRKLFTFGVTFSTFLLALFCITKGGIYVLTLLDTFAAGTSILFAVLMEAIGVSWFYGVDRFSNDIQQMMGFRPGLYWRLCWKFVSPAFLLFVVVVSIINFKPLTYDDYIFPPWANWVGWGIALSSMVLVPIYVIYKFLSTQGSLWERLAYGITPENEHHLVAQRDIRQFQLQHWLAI
# Method: as §1
# (§3) These targets include GPCRs, transporters, ion channels, nuclear receptors, non-kinase enzymes.
# [5] = biological target: T4, serotonin transporter (SERT) (Homo sapiens, UniProt P31645); test: Safety screen; type: biochemical; details: 10,000 nM API
# T4 construct: purchased DiscoverX
# T4 sequence (P31645 whole entry): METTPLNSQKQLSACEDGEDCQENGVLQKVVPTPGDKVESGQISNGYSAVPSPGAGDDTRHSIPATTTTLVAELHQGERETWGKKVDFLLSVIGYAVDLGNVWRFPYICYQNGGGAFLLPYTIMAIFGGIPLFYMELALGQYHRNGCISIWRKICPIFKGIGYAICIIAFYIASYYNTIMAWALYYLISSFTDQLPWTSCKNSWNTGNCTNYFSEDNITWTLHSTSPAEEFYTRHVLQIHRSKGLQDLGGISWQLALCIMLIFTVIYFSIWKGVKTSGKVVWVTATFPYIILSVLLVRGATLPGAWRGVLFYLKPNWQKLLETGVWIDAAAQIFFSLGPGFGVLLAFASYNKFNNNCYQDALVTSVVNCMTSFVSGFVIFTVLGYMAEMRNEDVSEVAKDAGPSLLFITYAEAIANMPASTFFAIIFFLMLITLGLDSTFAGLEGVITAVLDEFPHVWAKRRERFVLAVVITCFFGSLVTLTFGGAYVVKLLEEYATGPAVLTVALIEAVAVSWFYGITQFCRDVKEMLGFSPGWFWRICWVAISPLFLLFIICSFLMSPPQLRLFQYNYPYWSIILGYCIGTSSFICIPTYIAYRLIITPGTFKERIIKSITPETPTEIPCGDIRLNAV
# Method: as §1, §3
# ROCK1 [6] = biological target: T2, ROCK1; test: IC50 determined at 10 μM ATP; type: biochemical; parameters: purchased Eurofins Testing (Dundee, Scotland, UK); details: 10 μM ATP (below Km)
# Target sequence in this assay (Q13464 whole entry, the tested form may be a part): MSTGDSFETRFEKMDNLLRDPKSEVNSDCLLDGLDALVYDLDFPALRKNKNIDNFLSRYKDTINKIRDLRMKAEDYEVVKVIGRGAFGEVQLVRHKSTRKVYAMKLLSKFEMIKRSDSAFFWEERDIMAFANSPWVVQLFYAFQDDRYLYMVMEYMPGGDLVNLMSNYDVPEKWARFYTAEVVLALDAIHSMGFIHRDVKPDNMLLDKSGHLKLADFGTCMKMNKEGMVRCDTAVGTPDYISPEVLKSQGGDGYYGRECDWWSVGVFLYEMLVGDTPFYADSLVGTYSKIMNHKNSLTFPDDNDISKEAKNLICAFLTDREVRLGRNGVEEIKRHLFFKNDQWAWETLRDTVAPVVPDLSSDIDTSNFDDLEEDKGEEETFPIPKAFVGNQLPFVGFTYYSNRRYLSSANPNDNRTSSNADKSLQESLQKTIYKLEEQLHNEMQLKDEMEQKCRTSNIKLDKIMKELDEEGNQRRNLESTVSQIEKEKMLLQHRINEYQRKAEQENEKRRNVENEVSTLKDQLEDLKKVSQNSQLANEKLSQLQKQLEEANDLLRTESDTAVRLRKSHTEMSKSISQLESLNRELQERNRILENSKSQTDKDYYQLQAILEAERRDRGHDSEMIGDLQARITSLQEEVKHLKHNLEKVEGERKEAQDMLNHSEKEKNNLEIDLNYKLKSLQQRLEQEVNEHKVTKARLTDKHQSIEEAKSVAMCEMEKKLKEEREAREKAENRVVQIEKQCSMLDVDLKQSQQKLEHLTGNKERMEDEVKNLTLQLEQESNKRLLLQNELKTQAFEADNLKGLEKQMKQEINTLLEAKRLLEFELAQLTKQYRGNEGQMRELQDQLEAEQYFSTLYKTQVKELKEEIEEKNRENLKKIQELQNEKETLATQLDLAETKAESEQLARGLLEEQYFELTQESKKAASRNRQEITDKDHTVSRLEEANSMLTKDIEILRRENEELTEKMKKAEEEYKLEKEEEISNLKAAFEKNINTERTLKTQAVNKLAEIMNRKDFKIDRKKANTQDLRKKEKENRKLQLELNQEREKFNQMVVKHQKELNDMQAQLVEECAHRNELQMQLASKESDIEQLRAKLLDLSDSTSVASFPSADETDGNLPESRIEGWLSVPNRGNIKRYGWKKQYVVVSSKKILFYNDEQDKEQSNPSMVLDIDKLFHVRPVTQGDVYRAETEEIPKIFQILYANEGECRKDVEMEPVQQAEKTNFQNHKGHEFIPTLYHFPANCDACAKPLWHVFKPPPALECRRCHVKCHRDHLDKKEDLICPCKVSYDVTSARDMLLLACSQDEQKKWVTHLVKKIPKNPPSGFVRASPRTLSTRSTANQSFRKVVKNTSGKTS
# ROCK2 [7] = biological target: T1, ROCK2; test: IC50 determined at 10 μM ATP; type: biochemical; parameters: purchased Eurofins Testing (Dundee, Scotland, UK)
# Text: The data in Table 2 were obtained at ATP concentration below those corresponding to Km.
# Target sequence in this assay (O75116 whole entry, the tested form may be a part): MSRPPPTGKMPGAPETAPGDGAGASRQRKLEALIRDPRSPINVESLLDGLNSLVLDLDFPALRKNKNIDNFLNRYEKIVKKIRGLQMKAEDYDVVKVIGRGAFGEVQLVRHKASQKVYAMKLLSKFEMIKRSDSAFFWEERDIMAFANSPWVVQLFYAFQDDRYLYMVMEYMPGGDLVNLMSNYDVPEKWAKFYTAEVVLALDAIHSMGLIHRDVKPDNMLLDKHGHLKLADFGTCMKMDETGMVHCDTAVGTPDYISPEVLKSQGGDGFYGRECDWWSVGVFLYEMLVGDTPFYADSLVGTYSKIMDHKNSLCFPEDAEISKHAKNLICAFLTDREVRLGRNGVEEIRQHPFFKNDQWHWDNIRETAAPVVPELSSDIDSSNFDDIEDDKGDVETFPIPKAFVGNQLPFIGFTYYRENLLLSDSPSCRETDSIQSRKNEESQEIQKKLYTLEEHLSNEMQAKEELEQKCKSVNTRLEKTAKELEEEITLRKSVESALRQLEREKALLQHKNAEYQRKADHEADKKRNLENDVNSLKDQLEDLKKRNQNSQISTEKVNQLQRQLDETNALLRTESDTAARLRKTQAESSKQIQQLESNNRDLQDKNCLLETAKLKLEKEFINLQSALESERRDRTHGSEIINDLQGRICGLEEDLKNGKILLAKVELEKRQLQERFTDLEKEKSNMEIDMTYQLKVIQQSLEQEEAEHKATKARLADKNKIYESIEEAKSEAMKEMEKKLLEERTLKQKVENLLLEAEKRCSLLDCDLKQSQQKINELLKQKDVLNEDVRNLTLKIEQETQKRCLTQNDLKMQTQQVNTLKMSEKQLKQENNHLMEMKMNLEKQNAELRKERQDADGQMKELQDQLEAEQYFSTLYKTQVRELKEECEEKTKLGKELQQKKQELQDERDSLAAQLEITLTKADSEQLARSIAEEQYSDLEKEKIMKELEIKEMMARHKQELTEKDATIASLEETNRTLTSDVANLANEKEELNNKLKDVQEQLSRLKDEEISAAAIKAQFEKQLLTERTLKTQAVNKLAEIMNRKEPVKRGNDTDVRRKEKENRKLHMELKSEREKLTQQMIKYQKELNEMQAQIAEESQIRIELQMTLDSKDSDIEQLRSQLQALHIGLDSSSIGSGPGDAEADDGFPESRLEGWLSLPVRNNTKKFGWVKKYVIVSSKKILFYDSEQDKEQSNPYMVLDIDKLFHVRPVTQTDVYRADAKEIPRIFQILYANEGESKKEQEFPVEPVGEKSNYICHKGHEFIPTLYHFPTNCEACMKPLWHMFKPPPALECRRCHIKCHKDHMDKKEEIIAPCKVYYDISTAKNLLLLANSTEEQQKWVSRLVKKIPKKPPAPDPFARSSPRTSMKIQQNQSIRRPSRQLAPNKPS
# PKC ε = biological target: T5, PKC ε (Homo sapiens, UniProt Q02156); test: DiscoverX kinome screen; type: binding; details: 10,000 nM API
# T5 construct: are incubated with DNA-tagged kinase domains tagged; DNA tag; purchased DiscoverX
# T5 sequence (Q02156 408-668 limits assumed): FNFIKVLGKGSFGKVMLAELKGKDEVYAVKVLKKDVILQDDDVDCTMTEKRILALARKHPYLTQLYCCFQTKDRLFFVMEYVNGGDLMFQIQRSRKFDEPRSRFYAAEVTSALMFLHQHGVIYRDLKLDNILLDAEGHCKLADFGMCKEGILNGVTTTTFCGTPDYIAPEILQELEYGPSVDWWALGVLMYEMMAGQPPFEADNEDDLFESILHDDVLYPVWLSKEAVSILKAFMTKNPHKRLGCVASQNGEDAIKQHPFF
# Method: as §1, §2
# PKC Δ = biological target: T6, PKC Δ (Homo sapiens, UniProt Q05655); test: DiscoverX kinome screen; type: binding; details: 10,000 nM API
# T6 construct: are incubated with DNA-tagged kinase domains tagged; DNA tag; purchased DiscoverX
# T6 sequence (Q05655 349-603 limits assumed, stated change not applied): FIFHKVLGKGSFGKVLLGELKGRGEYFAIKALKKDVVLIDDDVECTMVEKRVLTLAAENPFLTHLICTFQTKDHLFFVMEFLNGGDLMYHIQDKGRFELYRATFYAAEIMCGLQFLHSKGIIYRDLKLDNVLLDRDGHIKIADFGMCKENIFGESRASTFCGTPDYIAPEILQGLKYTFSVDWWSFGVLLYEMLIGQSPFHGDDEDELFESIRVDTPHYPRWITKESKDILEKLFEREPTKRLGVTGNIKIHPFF
# Method: as §1, §2
# GRK1 = biological target: T7, GRK1 (Homo sapiens, UniProt Q15835); test: DiscoverX kinome screen; type: binding
# T7 construct: are incubated with DNA-tagged kinase domains tagged; DNA tag; purchased DiscoverX
# T7 sequence (Q15835 190-455 limits assumed): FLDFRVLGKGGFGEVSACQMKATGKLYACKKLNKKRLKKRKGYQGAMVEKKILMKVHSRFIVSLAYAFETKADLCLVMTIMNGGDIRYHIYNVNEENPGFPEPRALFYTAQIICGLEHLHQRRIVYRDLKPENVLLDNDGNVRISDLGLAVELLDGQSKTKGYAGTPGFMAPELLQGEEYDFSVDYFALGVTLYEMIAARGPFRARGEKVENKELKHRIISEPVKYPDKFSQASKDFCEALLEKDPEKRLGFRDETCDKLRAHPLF
# Method: as §1, §2
# [8] = Total body irradiation (TBI) mouse model, GI histopathology; type: in vivo, mice; details: dosing for three days, 3 days after irradiation
# Method: At day 0, TBI is carried out at a lethal dose of 8.0 Gy (Harlan mice) or 9.0 Gy (Coats mice)-doses that are expected to cause death in about 90% of animals within 30 days. […] Mice are monitored for survival up to day 30. During this period, mice were deprived of all supportive care, including antibiotics, to increase the stringency of the survival protocol. Survival is assessed with Kaplan-Meir curves. […] Mice are euthanized at 3 days and GI tissue is paraffin-embedded, sectioned and immunolabeled with rabbit anti-mouse leucine-rich-repeat-containing G-protein-coupled receptor 5 (LGR5), a GI stem cell marker that is expressed upon GI injury.
Structure (SMILES),Inhibition of PKA (PKA),Kinome Screen % inhibition ROCK2 (ROCK2 [1]) [%],Kinome Screen % inhibition ROCK1 (ROCK1 [2]) [%],Number of surviving TH-positive neurons [3],Safety Screen % inhibition NET [4],Safety Screen % inhibition SERT [5],IC50 (ROCK1 [6]) [µM],"IC50 (ROCK2 [7]; 10 μM ATP (below Km), * = preliminary) [µM]",Fold-difference (ROCK2 [7]; ROCK1 vs ROCK2 IC50 at 10 μM ATP),Kinome Screen % inhibition PKC ε (PKC ε) [%],Kinome Screen % inhibition PKC Δ (PKC Δ) [%],Off-target activity on GRK1 (GRK1),Radiation-induced jejunal damage (LGR5 expression) [8]
C[C@H](N)C1CCN(S(=O)(=O)c2cccc3cnccc23)CC1 [BA-1076],Neither compound inhibited PKA,>99,>99,dose-dependent increase in the number of surviving neurons,none,none,10,0.73,14,86,<70,"does not have this off-target effect; also recorded: neither BA-1076 nor its metabolite, BA-2057, exhibits off-target inhibition of GRK1",mitigated radiation-induced jejunal damage
C[C@H](N)C1CCN(S(=O)(=O)c2cccc3c(=O)[nH]ccc23)CC1 [BA-2057],–,>96,>98,dose-dependent increase in the number of surviving neurons,none,none,–,–,–,<70,<70,"neither BA-1076 nor its metabolite, BA-2057, exhibits off-target inhibition of GRK1",mitigated radiation-induced jejunal damage
